# Experiment: Binding affinity to beta amyloid protein 1-40 by fluorescence titration
# Design: species or system Homo sapiens
row,SMILES,Kd [nM]
1,Oc1ccc(/C=C/c2ccc(/C=C/c3ccc(O)cc3)cc2)cc1,11
2,Oc1ccc(/C=C/c2c(F)c(F)c(/C=C/c3ccc(O)cc3)c(F)c2F)cc1,0.03
3,FC(F)(F)Oc1cccc(/C=C/c2ccc(/C=C/c3cccc(OC(F)(F)F)c3)cc2)c1,16
4,Cc1ccc2c(c1)sc(-c1ccc(N(C)C)cc1)[n+]2C [THIOFLAVIN T],560
5,O=C(O)c1cc(/C=C/c2ccc(/C=C/c3ccc(O)c(C(=O)O)c3)c(F)c2)ccc1O,3400
6,O=C(O)c1cc(/C=C/c2c(F)c(F)c(/C=C/c3ccc(O)c(C(=O)O)c3)c(F)c2F)ccc1O,9.4
7,FC(F)(F)c1ccc(/C=C/c2ccc(/C=C/c3ccc(C(F)(F)F)cc3)cc2)cc1,9.5
8,FC(F)(F)Oc1ccc(/C=C/c2ccc(/C=C/c3ccc(OC(F)(F)F)cc3)cc2)cc1,10
9,FC(F)(F)c1cccc(/C=C/c2ccc(/C=C/c3cccc(C(F)(F)F)c3)cc2)c1,26
